Read-outs that look alike come from different tables or passages of the source.
Assays:
SARS-CoV-2 3CL^pro = SARS-CoV-2 3CL^pro (Severe acute respiratory syndrome coronavirus 2 (2019-nCoV) (SARS-CoV-2), UniProt P0DTD1); assay: biochemical; details: for IC50: FRET
HEK293 cells = assay: In-vitro cytotoxicity by the MTT method, HEK293 cells; details: 24 hrs
Description: (§1) The in-vitro cytotoxicity of Compounds 1, 12, and 17 was evaluated by the MTT method. HepG2, HEK293 and A549 cells in logarithmic growth phase were respectively trypsinized into a cell suspension. The cell density was adjusted to 5×10^4 cells/mL. 180 μL per well of the cell suspension was inoculated into a sterile 96-well plate at 37° C., and cultured in an incubator at 5% CO2 for 24 hrs. After the cells were attached to the bottom of the plate, 20 μL of the drug solutions over the concentration gradients were respectively added into each well, and 6 replicate wells were set in parallel. Also, a blank group (group without cells and drug) and a control group (group without drug) were set. The system was incubated in an incubator at 37° C. and 5% CO2 for 24 hrs, and then 20 μL per well of a 5 g/L MTT solution was added and incubated for another 4 hrs. After the incubation was completed, the culture medium in the well was gently aspirated, and 100 μL of DMSO was added to each well. Then the crystal was fully dissolved in a shaker for 10 min at a low speed. After that, the absorbency of each well was measured at OD490 nm in an enzymelinked immunodetector, and the survival rate of cells was calculated.

A549 cells = assay: In-vitro cytotoxicity by the MTT method, A549 cells; details: 24 hrs
Description: as §1

HepG2 cells = assay: In-vitro cytotoxicity by the MTT method, HepG2 cells; details: 24 hrs
Description: as §1

[1] = class symbols, read-out: IC50 (nM), inhibitory activity against 3CL^pro
[2] = non-linear regression, read-out: IC50 against 3CL^pro

Compound `COc1ccc(Cn2c(=O)n(Cc3nnn[nH]3)c(=O)[nH]/c2=N\c2cc3cn(C)nc3cc2Cl)cc1` [Compound 10] has an IC50 (SARS-CoV-2 3CL^pro; [1]) of 200 to 500 nM.

For `Cn1cc2cc(/N=c3\[nH]c(=O)n(Cc4nnn[nH]4)c(=O)n3Cc3ccccc3)c(Cl)cc2n1` [Compound 2, (E)-3-((1H-tetrazol-5-yl)methyl)-1-benzyl-6-((6-chloro-2-methyl-2H-indazol-5-yl)imino)-1,3,5-triazin-2,4-dione], the IC50 (SARS-CoV-2 3CL^pro; [1]) was 500 to 1000 nM.

For `Cn1cc2cc(/N=c3\[nH]c(=O)n(Cc4nnn[nH]4)c(=O)n3Cc3ccc([N+](=O)[O-])cc3)c(Cl)cc2n1` [Compound 9], the IC50 (SARS-CoV-2 3CL^pro; [1]) was > 1000 nM.

`Cn1cc2cc(/N=c3\[nH]c(=O)n(Cc4nnnn4C4CCC4)c(=O)n3Cc3cc(F)c(F)cc3F)c(Cl)cc2n1` [Compound 23] showed an IC50 (SARS-CoV-2 3CL^pro; [1]) of 500 to 1000 nM.

With `Cn1cc2cc(/N=c3\[nH]c(=O)n(Cc4nnn[nH]4)c(=O)n3Cc3ccc(F)cc3)c(Cl)cc2n1` [Compound 12] the IC50 (SARS-CoV-2 3CL^pro; [1]) was < 200 nM, the IC50 (SARS-CoV-2 3CL^pro; [2]) was 184 nM and the inhibition at 0.0001 µM (SARS-CoV-2 3CL^pro; concentration 0.1 nM, read-out: inhibition percentage of 3CL^pro) was 0.52%. The inhibition at 0.001 µM (SARS-CoV-2 3CL^pro; concentration 1 nM, read-out: inhibition percentage of 3CL^pro) was 1.86%, the inhibition at 0.005 µM (SARS-CoV-2 3CL^pro; concentration 5 nM, read-out: inhibition percentage of 3CL^pro) was 4.98% and the inhibition at 0.01 µM (SARS-CoV-2 3CL^pro; concentration 10 nM, read-out: inhibition percentage of 3CL^pro) was 7.28%. The inhibition at 0.02 µM (SARS-CoV-2 3CL^pro; concentration 20 nM, read-out: inhibition percentage of 3CL^pro) was 9.3%, the inhibition at 0.03 µM (SARS-CoV-2 3CL^pro; concentration 30 nM, read-out: inhibition percentage of 3CL^pro) was 12.3% and the inhibition at 0.05 µM (SARS-CoV-2 3CL^pro; concentration 50 nM, read-out: inhibition percentage of 3CL^pro) was 18.8%. It also gave an inhibition at 0.1 µM (SARS-CoV-2 3CL^pro; concentration 100 nM, read-out: inhibition percentage of 3CL^pro) of 40%, an inhibition at 0.5 µM (SARS-CoV-2 3CL^pro; concentration 500 nM, read-out: inhibition percentage of 3CL^pro) of 70.2% and an inhibition at 1 µM (SARS-CoV-2 3CL^pro; concentration 1000 nM, read-out: inhibition percentage of 3CL^pro) of 85.4%. The “Survival rate of HEK293 cells” value (HEK293 cells; 1.5625 nM) was 93.44%, the “Survival rate of HEK293 cells” value (HEK293 cells; 3.125 nM) was 92.73% and the “Survival rate of HEK293 cells” value (HEK293 cells; 6.25 nM) was 91.16%. The “Survival rate of HEK293 cells” value (HEK293 cells; 12.5 nM) was 89.80%, the “Survival rate of HEK293 cells” value (HEK293 cells; 25 nM) was 85.34% and the “Survival rate of HEK293 cells” value (HEK293 cells; 50 nM) was 82.99%. For the same compound, the “Survival rate of HEK293 cells” value (HEK293 cells; 100 nM) was 82.76%, the “Survival rate of HEK293 cells” value (HEK293 cells; 200 nM) was 78.93% and the “Survival rate of HEK293 cells” value (HEK293 cells; 400 nM) was 77.46%. The “Survival rate of A549 cells” value (A549 cells; 1.5625 nM) was 98.43%, the “Survival rate of A549 cells” value (A549 cells; 3.125 nM) was 96.76% and the “Survival rate of A549 cells” value (A549 cells; 6.25 nM) was 96.86%. For the same compound, the “Survival rate of A549 cells” value (A549 cells; 12.5 nM) was 96.42%, the “Survival rate of A549 cells” value (A549 cells; 25 nM) was 95.19% and the “Survival rate of A549 cells” value (A549 cells; 50 nM) was 93.96%. For the same compound, the “Survival rate of A549 cells” value (A549 cells; 100 nM) was 93.51%, the “Survival rate of A549 cells” value (A549 cells; 200 nM) was 92.13% and the “Survival rate of A549 cells” value (A549 cells; 400 nM) was 89.12%. For the same compound, the “Survival rate of HepG2 cells” value (HepG2 cells; 1.5625 nM) was 96.16%, the “Survival rate of HepG2 cells” value (HepG2 cells; 3.125 nM) was 94.78% and the “Survival rate of HepG2 cells” value (HepG2 cells; 6.25 nM) was 93.92%. The “Survival rate of HepG2 cells” value (HepG2 cells; 12.5 nM) was 91.45%, the “Survival rate of HepG2 cells” value (HepG2 cells; 25 nM) was 88.16% and the “Survival rate of HepG2 cells” value (HepG2 cells; 50 nM) was 87.52%. The “Survival rate of HepG2 cells” value (HepG2 cells; 100 nM) was 83.43%, the “Survival rate of HepG2 cells” value (HepG2 cells; 200 nM) was 82.56% and the “Survival rate of HepG2 cells” value (HepG2 cells; 400 nM) was 77.32%.

In the case of `CCn1nnnc1Cn1c(=O)[nH]/c(=N\c2cc3cn(C)nc3cc2Cl)n(Cc2ccc(C(F)(F)F)cc2)c1=O` [Compound 18], the IC50 (SARS-CoV-2 3CL^pro; [1]) is reported as 200 to 500 nM.

`CCn1nnnc1Cn1c(=O)[nH]/c(=N\c2cc3cn(C)nc3cc2Cl)n(Cc2cc(F)c(F)cc2F)c1=O` [Compound 17] was tested, and the IC50 (SARS-CoV-2 3CL^pro; [1]) was < 200 nM, the IC50 (SARS-CoV-2 3CL^pro; [2]) was 160 nM and the “inhibition percentage of 3CL^pro” value (SARS-CoV-2 3CL^pro; concentration 0.1 nM) was 0.76%. For the same compound, the “inhibition percentage of 3CL^pro” value (SARS-CoV-2 3CL^pro; concentration 1 nM) was 1.93%, the “inhibition percentage of 3CL^pro” value (SARS-CoV-2 3CL^pro; concentration 5 nM) was 6.21% and the “inhibition percentage of 3CL^pro” value (SARS-CoV-2 3CL^pro; concentration 10 nM) was 7.67%. For the same compound, the “inhibition percentage of 3CL^pro” value (SARS-CoV-2 3CL^pro; concentration 20 nM) was 12.76%, the “inhibition percentage of 3CL^pro” value (SARS-CoV-2 3CL^pro; concentration 30 nM) was 17.92% and the “inhibition percentage of 3CL^pro” value (SARS-CoV-2 3CL^pro; concentration 50 nM) was 25.23%. For the same compound, the “inhibition percentage of 3CL^pro” value (SARS-CoV-2 3CL^pro; concentration 100 nM) was 44.76%, the “inhibition percentage of 3CL^pro” value (SARS-CoV-2 3CL^pro; concentration 500 nM) was 68.52% and the “inhibition percentage of 3CL^pro” value (SARS-CoV-2 3CL^pro; concentration 1000 nM) was 85.36%. For the same compound, the “Survival rate of HEK293 cells” value (HEK293 cells; 1.5625 nM) was 93.79%, the “Survival rate of HEK293 cells” value (HEK293 cells; 3.125 nM) was 93.12% and the “Survival rate of HEK293 cells” value (HEK293 cells; 6.25 nM) was 93.48%. For the same compound, the “Survival rate of HEK293 cells” value (HEK293 cells; 12.5 nM) was 90.79%, the “Survival rate of HEK293 cells” value (HEK293 cells; 25 nM) was 85.73% and the “Survival rate of HEK293 cells” value (HEK293 cells; 50 nM) was 84.32%. For the same compound, the “Survival rate of HEK293 cells” value (HEK293 cells; 100 nM) was 83.83%, the “Survival rate of HEK293 cells” value (HEK293 cells; 200 nM) was 79.45% and the “Survival rate of HEK293 cells” value (HEK293 cells; 400 nM) was 78.03%. For the same compound, the “Survival rate of A549 cells” value (A549 cells; 1.5625 nM) was 98.02%, the “Survival rate of A549 cells” value (A549 cells; 3.125 nM) was 97.96% and the “Survival rate of A549 cells” value (A549 cells; 6.25 nM) was 97.24%. The “Survival rate of A549 cells” value (A549 cells; 12.5 nM) was 96.38%, the “Survival rate of A549 cells” value (A549 cells; 25 nM) was 95.77% and the “Survival rate of A549 cells” value (A549 cells; 50 nM) was 94.13%. For the same compound, the “Survival rate of A549 cells” value (A549 cells; 100 nM) was 94.21%, the “Survival rate of A549 cells” value (A549 cells; 200 nM) was 93.31% and the “Survival rate of A549 cells” value (A549 cells; 400 nM) was 91.33%. For the same compound, the “Survival rate of HepG2 cells” value (HepG2 cells; 1.5625 nM) was 95.56%, the “Survival rate of HepG2 cells” value (HepG2 cells; 3.125 nM) was 95.79% and the “Survival rate of HepG2 cells” value (HepG2 cells; 6.25 nM) was 94.43%. The “Survival rate of HepG2 cells” value (HepG2 cells; 12.5 nM) was 91.02%, the “Survival rate of HepG2 cells” value (HepG2 cells; 25 nM) was 90.46% and the “Survival rate of HepG2 cells” value (HepG2 cells; 50 nM) was 87.13%. The “Survival rate of HepG2 cells” value (HepG2 cells; 100 nM) was 83.85%, the “Survival rate of HepG2 cells” value (HepG2 cells; 200 nM) was 80.42% and the “Survival rate of HepG2 cells” value (HepG2 cells; 400 nM) was 76.13%.

For `CC(C)Cn1nnnc1Cn1c(=O)[nH]/c(=N\c2cc3cn(C)nc3cc2Cl)n(Cc2cc(F)c(F)cc2F)c1=O` [Compound 24], the IC50 (SARS-CoV-2 3CL^pro; [1]) was > 1000 nM.

In the case of `Cn1cc2cc(Nc3nc(=O)n(Cc4nnn[nH]4)c(=O)n3Cc3ccc(C(F)(F)F)cc3)c(Cl)cc2n1` [Compound 8, (E)-3-(1H-tetrazol-5-yl)methyl)-6-(6-chloro-2-methyl-2H-indazol-5-yl)imino)-1-(4-(trifluoromethyl)benzyl)-1,3,5-triazin-2,4-dione], the IC50 (SARS-CoV-2 3CL^pro; [1]) is reported as 500 to 1000 nM.

`Cn1cc2cc(/N=c3\[nH]c(=O)n(Cc4nnnn4C4CC4)c(=O)n3Cc3cc(F)c(F)cc3F)c(Cl)cc2n1` [Compound 21] was tested, and the IC50 (SARS-CoV-2 3CL^pro; [1]) was 200 to 500 nM.

`CCn1nnnc1Cn1c(=O)[nH]/c(=N\c2ccc3nn(C)cc3c2)n(Cc2ccc([N+](=O)[O-])cc2)c1=O` [Compound 19] was tested, and the IC50 (SARS-CoV-2 3CL^pro; [1]) was 200 to 500 nM.

Reference: patent US20230391736A1, “3-TETRAZOLYLMETHYL-1,3,5-TRIAZIN-2,4-DIONE COMPOUND INHIBITING CORONAVIRUS 3CL PROTEASE ACTIVITY AND PREPARATION METHOD AND USE THEREOF” (priority 2022, published 2023)
